Laboratory results: patent publication US11344578B2, “Immune cells expressing engineered antigen receptors” (Board of Regents, The University of Texas System, priority 2017, dated 2022)
“Also recorded” adds a separate entry of the source.

Key:
glucocorticoid receptor = test: PCR based screening of glucocorticoid receptor knockout in hematopoietic cells; format: cell-based; settings: T cells and NK cells; CRISPR-CAS9; FIG. 3
From the text: To produce steroid-resistant immune cells, the CRISPR-CAS9 system was used to knockout glucocorticoid receptor in hematopoietic cells using gRNA SEQ ID NOs:1-2.

Raji leukemic B cells = test: Luciferase-expressing Raji NSG mouse model, in vivo bioluminescence imaging and survival; settings: effect of IL-15 in the construct
From the text: To determine the anti-leukemic effect of the CAR-transduced NK cells, they were infused into a “humanized” mouse model of lymphoblastic leukemia, the luciferase-expressing Raji NSG mouse model. To monitor the trafficking of CAR-CD191+CB-NK cells to tumor sites in vivo, the cells were labeled with the FFLuc vector, enabling monitoring by bioluminescence imaging. Engrafted mice received […] Raji leukemic B cells (2×10^6) injected intravenously and labeled with the RLuc vector to monitor tumor growth. Six to 10 days after tumor engraftment, mice were infused intravenously with 2×10^7 expanded CB-NK cells that were unmodified or CD19-CD28-zeta-2A-IL15 CB-NK cells labeled with FFLuc. All imaging was performed once a week for 3 weeks. Four groups of animals (n=10 per group) were studied, and the spleens, blood and lymph nodes of the mice were collected after they were euthanized.

TGFβ-RII = test: CRISPR/CAS9 knockout of TGFβ-RII in CAR NK cells; format: cell-based; settings: Cas9 plus gRNA targeting Exon 3; FIG. 6A
Protocol: Next, CRISPR-CAS9 was used to knockout TGFβ in CAR NK cells to render CAR NK cells resistant to the immunosuppressive effect of exogenous TGFβ. […] Wild type and TGF-β-RII knockout NK cells were treated with 10 ng/ml of recombinant TGF-β for 48 hrs and their response to K562 targets was assessed. […] TGFβ-RII knockout by CRISPR/CAS9 technology was also found to abrogate downstream Smad-2/3 phosphorylation in response to 10n g/ml of recombinant TGF-β compared to NK cells treated with CAS9 alone (FIG. 6C). Thus, CRISPR-CAS9-mediated knockout of TGFβ-RII renders NK cells resistant to TGFβ.

iC9/CS1/IL15+NK cells = test: Inducible caspase-9 suicide gene test, annexin-V-7AAD staining; format: cell-based; settings: 10 nM CID AP20187 added to cultures
Protocol: Because of concerns over autonomous, uncontrolled NK-cell growth due to autocrine production of IL-15, a suicide gene based on the inducible caspase-9 (IC9) gene was incorporated into the construct. To test the inducible caspase-9 suicide gene that was incorporated into the retroviral vector, 10 nM of CID AP20187 was added to cultures of iC9/CS1/IL15+NK cells. The AP20187 induced apoptosis/necrosis of transgenic cells within 4 hours as assessed by annexin-V-7AAD staining.

**Q.** “gRNA SEQ ID NOs:1-2: guide RNAs Ex3 NR3C1 sG1 and sG2 used with CAS9 to knock out glucocorticoid receptor (guide 1 TGCTGTTGAGGAGCTGGA; guide 2 AGCACACCAGGCAGAGTT; used with Cas9, further chemistry not given here)” was tested. Which “glucocorticoid receptor knockout by PCR based screening” value (glucocorticoid receptor) did it give?
**A.** The value was “efficient knockdown”.

**Q.** What does the source list for “IL-15: interleukin-15 co-expressed from the CAR construct in NK cells”?
**A.** NK-CAR mediated killing of tumor (Raji leukemic B cells; FIG. 2A): enhances; also recorded: increase; survival (Raji leukemic B cells; FIG. 2B): prolong survival

**Q.** “gRNA SEQ ID NOs:3-4: guide RNAs EX3 TGFBR2 sG1 and sG2 used with Cas9 to knock out TGFβ-RII (guide 1 CGGCTGAGGAGCGGAAGA; guide 2 TGGAGGTGAGCAATCCCC; used with Cas9, further chemistry not given here)” was tested. Which “knockout of TGFβ-RII” value (TGFβ-RII) did it give?
**A.** Its value is “Successful knockout”.

**Q.** Which “time to apoptosis/necrosis of transgenic cells” value (iC9/CS1/IL15+NK cells) does the source give for `CC[C@H](C(=O)N1CCCC[C@H]1C(=O)O[C@H](CCc1ccc(OC)c(OC)c1)c1cccc(OCC(=O)NCC(CNC(=O)COc2cccc([C@@H](CCc3ccc(OC)c(OC)c3)OC(=O)[C@@H]3CCCCN3C(=O)[C@@H](CC)c3cc(OC)c(OC)c(OC)c3)c2)CN(C)C)c1)c1cc(OC)c(OC)c(OC)c1` [AP20187] here?
**A.** Its value is at most 4 h.
